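1) Cells in 96-well plates. 2) Compound, 48 h, 5 concentrations. 3) Linear interpolation between surrounding doses. 4) Unreached endpoint = highest concentration. TGI: total growth inhibition.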
Tests used:
Experiment in all cases: DTP human tumour cell line panel, 48 h
SK-MEL-28 melanoma = test system: SK-MEL-28 melanoma
DMS 114 small cell lung = test system: DMS 114 small cell lung
MALME-3M melanoma = test system: MALME-3M melanoma
OVCAR-3 ovarian = test system: OVCAR-3 ovarian
MOLT-4 leukemia = test system: MOLT-4 leukemia
786-0 renal = test system: 786-0 renal
HCT-15 colon = test system: HCT-15 colon
HL-60(TB) leukemia = test system: HL-60(TB) leukemia
UACC-62 melanoma = test system: UACC-62 melanoma
HOP-92 NSCLC = test system: HOP-92 NSCLC
SK-OV-3 ovarian = test system: SK-OV-3 ovarian
HT29 colon = test system: HT29 colon
HOP-62 NSCLC = test system: HOP-62 NSCLC
LXFL 529 NSCLC = test system: LXFL 529 NSCLC
HCT-116 colon = test system: HCT-116 colon
A549 NSCLC = test system: A549 NSCLC
OVCAR-8 ovarian = test system: OVCAR-8 ovarian
SF-295 CNS = test system: SF-295 CNS
NCI-H226 lung = test system: NCI-H226 lung
DLD-1 colon = test system: DLD-1 colon
XF 498 CNS = test system: XF 498 CNS
NCI-H23 lung = test system: NCI-H23 lung
RXF-631 renal = test system: RXF-631 renal
SNB-75 CNS = test system: SNB-75 CNS
SNB-78 CNS = test system: SNB-78 CNS
M19-MEL melanoma = test system: M19-MEL melanoma
NCI-H460 lung = test system: NCI-H460 lung
OVCAR-4 ovarian = test system: OVCAR-4 ovarian
TK-10 renal = test system: TK-10 renal
SK-MEL-2 melanoma = test system: SK-MEL-2 melanoma
U251 CNS = test system: U251 CNS
LOX IMVI melanoma = test system: LOX IMVI melanoma
CCRF-CEM leukemia = test system: CCRF-CEM leukemia
HOP-18 NSCLC = test system: HOP-18 NSCLC
KM20L2 colon = test system: KM20L2 colon
UO-31 renal = test system: UO-31 renal
IGROV1 ovarian = test system: IGROV1 ovarian
KM12 colon = test system: KM12 colon
SF-268 CNS = test system: SF-268 CNS
M14 melanoma = test system: M14 melanoma
UACC-257 melanoma = test system: UACC-257 melanoma
OVCAR-5 ovarian = test system: OVCAR-5 ovarian
SNB-19 CNS = test system: SNB-19 CNS
RXF 393 renal = test system: RXF 393 renal
K-562 leukemia = test system: K-562 leukemia
A498 renal = test system: A498 renal
CAKI-1 renal = test system: CAKI-1 renal
EKVX NSCLC = test system: EKVX NSCLC
SW-620 colon = test system: SW-620 colon
RPMI-8226 leukemia = test system: RPMI-8226 leukemia
ACHN renal = test system: ACHN renal
NCI-H522 lung = test system: NCI-H522 lung
DMS 273 small cell lung = test system: DMS 273 small cell lung
SN12C renal = test system: SN12C renal
HCC-2998 colon = test system: HCC-2998 colon
COLO 205 colon = test system: COLO 205 colon
SK-MEL-5 melanoma = test system: SK-MEL-5 melanoma
SR leukemia = test system: SR leukemia
SF-539 CNS = test system: SF-539 CNS

COc1cc(Nc2cnc3ccc(N)cc3n2)cc(OC)c1OC
TGI (SK-MEL-28 melanoma): > 100 µM
TGI (DMS 114 small cell lung): > 100 µM
TGI (MALME-3M melanoma): > 100 µM
TGI (OVCAR-3 ovarian): > 86.6 µM
TGI (MOLT-4 leukemia): > 100 µM
TGI (786-0 renal): > 100 µM
TGI (HCT-15 colon): > 100 µM
TGI (HL-60(TB) leukemia): > 52.1 µM
TGI (UACC-62 melanoma): > 100 µM
TGI (HOP-92 NSCLC): > 100 µM
TGI (SK-OV-3 ovarian): > 100 µM
TGI (HT29 colon): > 100 µM
TGI (HOP-62 NSCLC): 71.1 µM
TGI (LXFL 529 NSCLC): > 100 µM
TGI (HCT-116 colon): > 100 µM
TGI (A549 NSCLC): > 100 µM
TGI (OVCAR-8 ovarian): > 100 µM
TGI (SF-295 CNS): > 100 µM
TGI (NCI-H226 lung): > 100 µM
TGI (DLD-1 colon): > 33.6 µM
TGI (XF 498 CNS): > 100 µM
TGI (NCI-H23 lung): > 100 µM
TGI (RXF-631 renal): > 100 µM
TGI (SNB-75 CNS): > 100 µM
TGI (SNB-78 CNS): > 100 µM
TGI (M19-MEL melanoma): > 100 µM
TGI (NCI-H460 lung): > 100 µM
TGI (OVCAR-4 ovarian): > 100 µM
TGI (TK-10 renal): > 100 µM
TGI (SK-MEL-2 melanoma): > 100 µM
TGI (U251 CNS): > 100 µM
TGI (LOX IMVI melanoma): > 82.8 µM
TGI (CCRF-CEM leukemia): > 56.6 µM
TGI (HOP-18 NSCLC): > 100 µM
TGI (KM20L2 colon): > 100 µM
TGI (UO-31 renal): > 100 µM
TGI (IGROV1 ovarian): > 100 µM
TGI (KM12 colon): > 100 µM
TGI (SF-268 CNS): > 100 µM
TGI (M14 melanoma): > 100 µM
TGI (UACC-257 melanoma): > 100 µM
TGI (OVCAR-5 ovarian): > 100 µM
TGI (SNB-19 CNS): > 100 µM
TGI (RXF 393 renal): 98.5 µM
TGI (K-562 leukemia): > 56.6 µM
TGI (A498 renal): > 100 µM
TGI (CAKI-1 renal): > 100 µM
TGI (EKVX NSCLC): > 100 µM
TGI (SW-620 colon): > 100 µM
TGI (RPMI-8226 leukemia): 42.2 µM
TGI (ACHN renal): > 100 µM
TGI (NCI-H522 lung): > 100 µM
TGI (DMS 273 small cell lung): > 100 µM
TGI (SN12C renal): > 100 µM
TGI (HCC-2998 colon): > 100 µM
TGI (COLO 205 colon): > 100 µM
TGI (SK-MEL-5 melanoma): > 100 µM

[O-][n+]1c2cc3c(cc2[n+]([O-])c2c(O)cccc21)CN(CCN1CCOCC1)C3
TGI (SK-MEL-28 melanoma): > 100 µM
TGI (DMS 114 small cell lung): 25.4 µM
TGI (MALME-3M melanoma): > 100 µM
TGI (OVCAR-3 ovarian): 50.8 µM
TGI (SR leukemia): 7.83 µM
TGI (MOLT-4 leukemia): 26.9 µM
TGI (786-0 renal): > 100 µM
TGI (HCT-15 colon): > 100 µM
TGI (HL-60(TB) leukemia): 36.8 µM
TGI (UACC-62 melanoma): 74.7 µM
TGI (HOP-92 NSCLC): 32.3 µM
TGI (SK-OV-3 ovarian): 58.9 µM
TGI (HT29 colon): 50.2 µM
TGI (LXFL 529 NSCLC): 62.1 µM
TGI (HCT-116 colon): 33.2 µM
TGI (A549 NSCLC): > 100 µM
TGI (OVCAR-8 ovarian): 32.5 µM
TGI (SF-295 CNS): 40 µM
TGI (NCI-H226 lung): > 100 µM
TGI (XF 498 CNS): 33.5 µM
TGI (NCI-H23 lung): 71 µM
TGI (RXF-631 renal): > 100 µM
TGI (SNB-75 CNS): > 100 µM
TGI (SNB-78 CNS): > 100 µM
TGI (M19-MEL melanoma): 49 µM
TGI (NCI-H460 lung): 28.1 µM
TGI (OVCAR-4 ovarian): > 100 µM
TGI (TK-10 renal): > 100 µM
TGI (SK-MEL-2 melanoma): 53 µM
TGI (U251 CNS): 28.7 µM
TGI (CCRF-CEM leukemia): 47 µM
TGI (HOP-18 NSCLC): > 100 µM
TGI (KM20L2 colon): > 100 µM
TGI (UO-31 renal): 40.9 µM
TGI (IGROV1 ovarian): 39.5 µM
TGI (KM12 colon): 31.8 µM
TGI (SF-268 CNS): 60.6 µM
TGI (M14 melanoma): > 100 µM
TGI (UACC-257 melanoma): 87.2 µM
TGI (OVCAR-5 ovarian): > 100 µM
TGI (SNB-19 CNS): > 100 µM
TGI (RXF 393 renal): 42.4 µM
TGI (K-562 leukemia): 54.2 µM
TGI (A498 renal): > 100 µM
TGI (CAKI-1 renal): > 100 µM
TGI (EKVX NSCLC): 68 µM
TGI (RPMI-8226 leukemia): 71.7 µM
TGI (ACHN renal): 66.9 µM
TGI (NCI-H522 lung): 19 µM
TGI (DMS 273 small cell lung): > 100 µM
TGI (SN12C renal): > 100 µM
TGI (COLO 205 colon): 30.5 µM
TGI (SK-MEL-5 melanoma): > 100 µM

Cc1nc2c(nc1C)C(=O)C1=C(C2=O)C2C=CC1CC2
TGI (SK-MEL-28 melanoma): 35.6 µM
TGI (DMS 114 small cell lung): 3.71 µM
TGI (MALME-3M melanoma): 24.4 µM
TGI (OVCAR-3 ovarian): 17.3 µM
TGI (MOLT-4 leukemia): 5.38 µM
TGI (786-0 renal): 24.8 µM
TGI (HCT-15 colon): 38.1 µM
TGI (HL-60(TB) leukemia): 4.26 µM
TGI (UACC-62 melanoma): 12.3 µM
TGI (HOP-92 NSCLC): 4.48 µM
TGI (SK-OV-3 ovarian): > 96.3 µM
TGI (HT29 colon): 41.7 µM
TGI (HOP-62 NSCLC): 53.9 µM
TGI (LXFL 529 NSCLC): 3.19 µM
TGI (HCT-116 colon): 3.12 µM
TGI (A549 NSCLC): 41.5 µM
TGI (OVCAR-8 ovarian): 10.8 µM
TGI (SF-295 CNS): 25 µM
TGI (NCI-H226 lung): 30.8 µM
TGI (DLD-1 colon): 21.6 µM
TGI (XF 498 CNS): 14.5 µM
TGI (NCI-H23 lung): 19.6 µM
TGI (RXF-631 renal): 13.9 µM
TGI (SNB-75 CNS): 61.6 µM
TGI (SNB-78 CNS): 10.6 µM
TGI (M19-MEL melanoma): 3.46 µM
TGI (NCI-H460 lung): 39.8 µM
TGI (SF-539 CNS): 26.9 µM
TGI (OVCAR-4 ovarian): 3.5 µM
TGI (TK-10 renal): > 55.9 µM
TGI (SK-MEL-2 melanoma): 29 µM
TGI (U251 CNS): 10.1 µM
TGI (LOX IMVI melanoma): 6.14 µM
TGI (CCRF-CEM leukemia): 5.9 µM
TGI (HOP-18 NSCLC): 30.2 µM
TGI (KM20L2 colon): 52.8 µM
TGI (UO-31 renal): 26.1 µM
TGI (IGROV1 ovarian): 9.93 µM
TGI (KM12 colon): 33.3 µM
TGI (SF-268 CNS): 12.3 µM
TGI (M14 melanoma): 27.3 µM
TGI (UACC-257 melanoma): 14.5 µM
TGI (OVCAR-5 ovarian): 36.9 µM
TGI (SNB-19 CNS): > 61.2 µM
TGI (RXF 393 renal): 18.5 µM
TGI (K-562 leukemia): 6.15 µM
TGI (A498 renal): 98.7 µM
TGI (CAKI-1 renal): 37.6 µM
TGI (EKVX NSCLC): 18.9 µM
TGI (SW-620 colon): 8.09 µM
TGI (RPMI-8226 leukemia): 7.35 µM
TGI (ACHN renal): 24.9 µM
TGI (NCI-H522 lung): 5.91 µM
TGI (DMS 273 small cell lung): 29.8 µM
TGI (SN12C renal): 32.4 µM
TGI (HCC-2998 colon): > 62.1 µM
TGI (COLO 205 colon): 29.8 µM
TGI (SK-MEL-5 melanoma): 4.82 µM

Source: PubChem BioAssay (NCI)
